Data as given in US20040071718A1, “Local nasal immunotherapy for allergen-induced airway inflammation” (priority 2002, published 2004).
Marks after values point to notes of the source that are not given here.

B1: FIP: fungal immunomodulatory protein isolated from Flammalina velutipes, amino acid sequence ID No. 3 (protein)
chain: SATSLTFQLAVLVKKIDFDYTPNWGRGTPSSYIDNLTFPKVLTDKKYSYRVVVNGSDLGVESNFAVTPSGGQTINFLQYNKGYGVADTKTIQVFVVIPDTGNSEEYIIAEWKKT
modifications: Flammalina velutipes

Legend:
Format in all cases: in vivo
Balb/c mice [1] = assay: Leukocyte subpopulations in BALF of rDp2-sensitized mice after local nasal immunotherapy (LNIT); details: for Eosinophil / Lymphocyte / Macrophage / Neutrophil / Total cell: BALF; for anti-inflammatory effect on airway inflammation: Example 1, BALF inflammatory cells compared to the NS groups
Method: (§1) Male Balb/c mice were obtained from the National Laboratory Breeding Research Center in Taiwan and were raised in a specific pathogen-free environment. The mice used were between six and eight weeks of age. Groups of six mice were caged separately according to their treatment. Recombinant Dermatophoides pteronyssinus group 2 (rDp2) was prepared as previously described(Tsai J J, et al. Int Arch Allergy Immunol 2000;121:205-10). Dp2 28-40 and Dp2 28-40A were obtained from Dr. Jonathan Lamb (Respiratory Medicine Unit, Edinburgh University, Medical School, Edinburgh, UK) (Verhoef A, and Lamb J R. J Immunol 2000;164:6034-6040). FIP was obtained from Dr. Ko Jiunn-Liang (Institute of Toxicology, Chung Shan Medical University, Taichung, R O C) (J L Ko, et al. Eur. J. Biochem. 1995;228:244-249).
(§2) Mice were immunized by way of an intraperitoneal (IP) injection of 1 μg/0.1 mL rDp2 emulsified in 4.0 mg/0.062mL aluminum hydroxide Al(OH)3 (Whitehall Lab Ltd. Punchbowl, NSW, Australia) on day 0 and day 7. Following immunization, local nasal immunotherapy (LNIT) was conducted daily from day 14 to day 35 with Dp2 28-40, Dp2 28-40A, FIP alone or FIP mixed with either Dp2 28-40 or Dp2 28-40A (FIP, 50 μg/mouse/day; Dp2 peptide, 1 μg/20 μL) in PBS with 10% glycerol. Normal saline (NS) and irrelevant allergen Bt were used as a negative control. […] On day 28, mice were lightly anesthetized with an IP injection of 60 mg/kg of sodium pentobarbital (Sigma Chemical Co., St Louis, Mo., U.S.A.) and inoculated intratracheally (IT) with 1 μg/50 μL of rDp 2 on day 28 and day 35. Two days subsequent to the second IT inoculation, the mice were sacrificed following the assessment of their pulmonary function (FIG. 1).
Subsequent to pulmonary function measurement having been completed, bronchoalveolar lavage (BAL) was performed using the following procedure. BAL fluids were collected with lmL sterile endotoxin-free saline washes of each lung via the trachea for each mouse. BAL cells were washed once with PBS by centrifugation at 200×g at 4° C. Subsequent to washing, the cells were resuspended in RPMI-1640 (Sigma Chemical Co.). The total leukocyte count in BAL fluids was determined using a hemocytometer. The BAL fluids were aspirated and stored at −70° C. until needed for assay purposes. Subsequent to total leukocyte counting, a cytospin preparation of 100 μL BAL fluids (2×10^5 cells/mL) was conducted, the cells being cytocentrifuged directly onto glass slides at 350 r.p.m. for five minutes using a Cytospin 3 cytocentrifuge (Shandon Scientific Limited, Astmoor, Runcorn, UK), and then stained with Liu stain (Tonyar Diagnostic Inc, Taipei & Hien, Taiwan). The differential counts were performed for a total of 200 leukocyte cells.

Balb/c mice [2] = assay: Dp2 specific IgG1, IgG2a and IgE in sera (ELISA) after LNIT; details: for Dp2 specific IgG1 production in the sera: Example 1, FIG. 2A; for Dp2 specific IgG1 production in the sera / Dp2 specific IgG2a production in the sera / Dp2 specific IgE production in the sera: compared with NS group; for Dp2 specific IgG2a production in the sera: Example 1, FIG. 2B; for Dp2 specific IgE production in the sera: Example 1, FIG. 2C
Method: as §1, §2
Blood was obtained from the retro-orbital venous plexus at the commencement and end of the experimental program. Serum IgE, IgG1 and IgG2a titers of anti-Dp2 antibodies were determined using an enzyme-linked immunosorbent assay (ELISA) technique. Microtiter plates (Nunc Lab, Ill., U.S.A.) were coated with 100 μL Dp2 overnight at a concentration of 0.5 μg/mL and left in a 4° C. refrigerator. Microtiter-plate nonspecific binding sites were blocked with 3% BSA in PBS for two hours at room temperature. Plates were washed with PBS-Tween-20 (PBST) three times and stored at −70° C. prior to subsequent use. Subsequent to the addition of a 1:5 dilution for IgE, a 1:100 dilution for IgG1 and a 1:5 dilution for IgG2a of mice serum, plates were incubated at 4° C. overnight, and then washed three times before the antibody (Horse radish peroxidase-conjugated goat anti-mouse IgE and IgG2a Ab 1:800, IgG1 Ab 1:2,000 Southern Biotech Assoc, Inc, Birmingham, Ala., U.S.A.) was added. Following a one-hour incubation at 37° C. and three washes with PBST, the enzyme substrate (2,2″-Azino-bis(3-ethylbenzothiazolin-6-sulfonic acid diammonium salt; Bio-Rad, USA) was added. The reaction was stopped using 50 μL 4N H2SO4 after the reaction had been allowed to continue for 15 minutes, following which the optical density was measured at 450nm using a multiscan spectrophotometer (model A-5682, SLT Lab Instruments, Salzburg, Austria). Results were expressed as ELISA units (EU), one EU being defined as the reciprocal value of the serum dilution that elicited an optical density of 1.0. Such a value was selected so as to always lie within the linear component of the dilution curve. To assure reproducibility, a known serum was included with each test as a standard.

Balb/c mice [3] = assay: Lung pathology (HE stain) after LNIT; details: lung tissue two days after IT with rDp2; for pathology: inflammatory cell infiltration and epithelium damage in the airway: Example 1, FIGS. 6A-6F
Text: FIGS. 6A-6F are photographs showing the pathology of different groups of mice after LNIT. The lung tissues were obtained two days after IT with rDp2. […] (HE stain, ×400).
FIGS. 9A-1˜9F-2 are photographs showing the pathology of different groups of mice following LNIT. The lung tissues were obtained two days subsequent to IT inoculation with rDp2. FIGS. 9A-1, -2: naive mice; FIGS. 9B-1, -2: NS-treated mice; FIGS. 9C-1, -2: DEX-treated mice; FIGS. 9D-1, -2: FIP-fve treated mice; FIGS. 9E-1, -2: Dp2 28-40A+FIP-fve treated mice; and FIGS. 9F-1, -2: Dp2 28-40+FIP-fve treated mice. FIGS. 9A-1, 9B-1, 9C-1, 9D-1, 9E-1 and 9F-1: HE stain, 100×; 9A-2, 9B-2, 9C-2, 9D-2, 9E-2, 9F-2: HE stain, 400×
as §2

Balb/c mice [4] = assay: Free radical production in BALF (chemiluminescence) after LNIT; details: FIG. 4, chemiluminescence, expressed as counts/10 seconds, compared to NS control
Method: as §2
Using chemiluminescence, free radicals in the BAL fluid were measured immediately after each experiment. The total amounts of free radical were detected and expressed as counts/10 seconds.

[5] = Example 1, LNIT day 14-35, rDp2 IT challenge, mean ± SEM of six animals
[6] = Example 2 (FIP study), mean ± SEN of six mice

| Molecule | Eosinophil (Balb/c mice [1]; [5]) | Lymphocyte (Balb/c mice [1]; [5]) | Macrophage (Balb/c mice [1]; [5]) | Neutrophil (Balb/c mice [1]; [5]) | Total cell (Balb/c mice [1]; [5]) | anti-inflammatory effect on airway inflammation (Balb/c mice [1]) | Dp2 specific IgG1 production in the sera (Balb/c mice [2]) | Dp2 specific IgG2a production in the sera (Balb/c mice [2]) | Dp2 specific IgE production in the sera (Balb/c mice [2]) | pathology: inflammatory cell infiltration and epithelium damage in the airway (Balb/c mice [3]) | further results |
| --- | --- | --- | --- | --- | --- | --- | --- | --- | --- | --- | --- |
| Dp2 28-40A: altered TCR ligand of Dp2 28-40, residues at positions 34 and 36 substituted by alanine; amino acid sequence ID No. 2 (IIHRGKAFALEAV; listed as Dermatophoides pteronyssinus) | 3.0 ± 1.0* 10^4 cells/mL | 14.6 ± 3.3* 10^4 cells/mL | 38.4 ± 7.2* 10^4 cells/mL | 8.2 ± 1.1* 10^4 cells/mL | 65.0 ± 3.2* 10^4 cells/mL | weaker than Dp2 28-40 | significantly reduced | increased | reduction of IgE was observed only in the group of Dp2 28-40 | reductions in airway inflammation |  |
| Dp2 28-40: Dermatophoides pteronyssinus group 2 (Dp2) epitope peptide, residues 28-40, amino acid sequence ID No. 1 (IIHRGKPFQLEAV; listed as Dermatophoides pteronyssinus) | 3.5 ± 0.5* 10^4 cells/mL | 11.8 ± 0.8* 10^4 cells/mL | 31.0 ± 2.5* 10^4 cells/mL | 7.2 ± 1.5* 10^4 cells/mL | 53.3 ± 4.1* 10^4 cells/mL | best anti-inflammatory effect | significantly reduced | increased | reduction of IgE | reductions in airway inflammation | free radical production in the BAL fluid (Balb/c mice [4]): significantly inhibited |
| B1 |  |  |  |  |  |  |  |  |  |  | Eosinophil (Balb/c mice [1]; [6]): 6.3 ± 1.3 ×10^4/mL; Lymphocyte (Balb/c mice [1]; [6]): 13.0 ± 1.8 ×10^4/mL; Macrophage (Balb/c mice [1]; [6]): 37.0 ± 7.4 ×10^4/mL; Neutrophil (Balb/c mice [1]; [6]): 9.0 ± 2.4 ×10^4/mL; Total cell (Balb/c mice [1]; [6]): 65.0 ± 10.5 ×10^4/mL; airway-inflammation level (cellular component in BALF) (Balb/c mice [1]; Example 2, text summary of Table 3): diminish the airway-inflammation level; Dp2 specific IgG1 production in sera (Balb/c mice [2]; Example 2, FIG. 7A, compared with NS): significantly reduced; Dp2 specific IgG2a production in sera (Balb/c mice [2]; Example 2, FIG. 7B, compared with NS): significantly increased; Dp2 specific IgE production in sera (Balb/c mice [2]; Example 2, FIG. 7C, compared with NS): significantly reduced; pathology: inflammatory-cell infiltration and epithelial damage in the airways (Balb/c mice [3]; Example 2, FIGS. 9A-9F): reduction in the level of airway inflammation |
